Data: patent US20040265847A1, “Method for treating Alzheimer's disease” (priority 1991, published 2004)

System: human brain 130/110 kDa APP
Experiment: ^65Zn binding to human brain 130/110 kDa APP (time course, competition, Scatchard)
Description: FIG. 4 is a graphical representation showing a time course analysis of ^65Zn binding to human brain 130/110 kDa APP. Amyloid protein precursor (APP) was purified according to the method in Moir et al. (1992). The preparation of purified 130 and 110 kDa APP was derived from human brain membrane extracts and contained the full-length precursor with carboxyl terminus intact but lacked the 17 residue signal peptide. The 130 and 110 kDa proteins were apparent in equal ratios on silver staining following polyacrylamide gel electrophoresis and were the only bands visible. The identity of these two proteins was confirmed by Western blots with monoclonal antibody 22C11 (which recognises an amino terminal epitope on APP), and by amino terminal sequencing. The protein concentration of the APP preparation was determined by amino acid analysis. Aliquots of APP (90 ng, =1.1 pmole, assuming the average amino acid formula weight of APP is =80 kDa) were incubated at 20° C. for the times indicated. Incubations (50 μl) were performed in 150 mM NaCl, 50 mM Tris-Hcl, pH 7.4 in the presence of 10^6 cpm of ^65Zn (175 nM). The incubation solution was then applied to a 1.1 ml bed volume Sephadex G25 (Pharmacia, Uppsala, Sweden) column pre-equilibrated with 150 mM NaCl, 50 mM Tris-HCl, pH 7.4 and allowed to settle before being desalted with 645 μl of the Equilibration buffer. […] The desalted protein was collected directly into counting tubes containing 10 ml aqueous counting scintillant. Less than two minutes was required to complete the desalting. The amount of ^65Zn bound to desalted APP was determined by counting the collected sample in a beta-counter set to the broadest channel. Counting was determined to be 51% efficient. The values shown are means±SD of n≧3 readings.
FIG. 5 is a graphical representation showing a competition analysis of ^65Zn binding to human brain 130/110 kDa APP. Aliquots of APP were incubated for 30 minutes with ^65Zn as in FIG. 4. The binding of the labelled Zn^2+ to APP was subjected to competition with unlabelled Zn^2+ in the form of the chloride salt. Data shown indicate the competition curves generated at pH 6.4 and 7.4. The binding of Zn^2+ to APP deteriorated at the lower pH (=45% of Bmax, pH 7.4). The values are means±SEM of n≧3 readings. The curves illustrated are typical of three experiments.
FIG. 6 is a graphical representation depicting a Scatchard analysis of ^65Zn binding to human brain 130/110 kDa APP.
Binding analysis was performed as follows: Aliquots of APP (90 ng, =1.1 pmole, assuming the average amino acid formula mass of APP is =80 kDa) were incubated at 20° C. Incubations (50 μl) were performed in 150 mM NaCl, 50 mM Tris-HCl, pH 7.4 in the presence of 10^6 CPM of ^65Zn (175 nM). The incubation solution was then applied to a 1.1 ml bed volume Sephadex G25 (Pharmacia, Uppsala, Sweden) column pre-equilibrated with 150 mM NaCl, 50 mM Tris-HCl, pH 7.4 and allowed to settle before being desalted with 645 μl of the equilibration buffer. […] The deslated protein was collected directly into counting tubes containing 10 ml aqueous counting scintillant (ACSII, Amersham). Less than two minutes was required to complete the desalting. The amount of ^65Zn bound to desalted APP was determined by counting the collected sample in a beta-counter set to the broadest channel. Counting was determined to be 51% efficient. The binding of the labelled Zn^2+ to APP was subjected to competition with unlabelled Zn^2+ and other metal chloride salts.

[Cl-].[Cl-].[Zn+2] [Zn^2+, ZnCl2]
Zn bound to APP, % of Bmax (at 1 minute): 30%
Zn bound to APP, % of Bmax (at 5 minutes): 30%
binding of Zn^2+ to APP at the lower pH, % of Bmax at pH 7.4 (pH 6.4): 45%
^65Zn label competed off APP (of Bmax) (unlabelled metal ion at 20 μM): > 97%
